The record followed here is patent US11730720B2, “ALK5 inhibitors” (THERAVANCE BIOPHARMA R&D IP, LLC, priority 2018, dated 2023).

The structures appear in SMILES notation. Some results are limits rather than exact numbers.

Assay [1] concerns the target T1, recombinant human ALK5 (TGF-βR1) protein (Homo sapiens, UniProt P36897).
T1 construct: purchased Life Technologies PR9075A
T1 sequence (P36897 34-503): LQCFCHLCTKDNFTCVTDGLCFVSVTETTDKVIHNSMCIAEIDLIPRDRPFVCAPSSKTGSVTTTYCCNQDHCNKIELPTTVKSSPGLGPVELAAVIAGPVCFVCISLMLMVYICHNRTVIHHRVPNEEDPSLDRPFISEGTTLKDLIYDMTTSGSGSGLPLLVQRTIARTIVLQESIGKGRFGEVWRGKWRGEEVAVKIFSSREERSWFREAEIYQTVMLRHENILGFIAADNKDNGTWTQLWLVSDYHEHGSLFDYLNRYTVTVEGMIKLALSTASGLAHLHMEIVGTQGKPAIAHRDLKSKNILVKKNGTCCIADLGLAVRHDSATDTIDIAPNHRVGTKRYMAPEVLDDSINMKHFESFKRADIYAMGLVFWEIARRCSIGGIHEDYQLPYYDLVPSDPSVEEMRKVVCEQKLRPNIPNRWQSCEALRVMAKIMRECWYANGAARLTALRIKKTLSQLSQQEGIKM
As to the kind of experiment: Biochemical ALK5 (TGF-βR1) assay to measure pKi (LANCE Ultra ULight kinase assay). The conditions noted are these: apparent pKi, converted from pIC50 using the Cheng-Prusoff equation. An outline of the steps: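 TR-FRET kinase format: compound dose range 10 μM–25 pM equilibrated 60 min with human ALK5 and ULight-labelled topoisomerase 2α peptide in HEPES/MgCl2 buffer pH 7.5 with DTT. Reaction started with ATP (125 μM stock, 5× final), 60 min at 37° C, stopped with EDTA/Eu-anti-phospho antibody; pKi derived from pIC50 via Cheng-Prusoff.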

Assay [2] deals with TGF-β-stimulated SMAD3 phosphorylation in BEAS-2B cells. As to the kind of experiment: Cellular ALK5 potency assay, inhibition of TGF-β stimulated pSMAD3 formation in BEAS-2B cells. The format is cell-based. The conditions noted are these: Homo sapiens, inhibition of TGF-β (10 ng/mL) stimulated pSMAD3 formation, 1 hour compound incubation, read-out: BEAS2B pIC50 (converted). Put shortly:
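Phospho-SMAD3 was quantified by AlphaLISA in lysates of human lung epithelial BEAS-2B cells. Compound was added 1 h (37 °C, HEPES/BSA-supplemented HBSS) before a 30 min challenge with 10 ng/mL TGF-β. Values are pIC50 relative to stimulated cells without compound.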

On to `COC(=O)N1CCc2nnc(-c3cnc4ccc(-c5c[nH]nc5-c5cc(Cl)c(F)cc5F)nc4c3)cc2C1` [Compound 6-61, methyl 3-[6-[3-(5-chloro-2,4-difluoro-phenyl)-1H-pyrazol-4-yl]-1,5-naphthyridin-3-yl]-7,8-dihydro-5H-pyrido[4,3-c]pyridazine-6-carboxylate], for which the Ki in assay [1] is 0.0398 to 0.316 nM. Moreover, the IC50 in assay [2] is 25.1 to 158 nM.
In the same order, the values of `Fc1cc(F)c(-c2n[nH]cc2-c2ccc3ncc(-c4cn(Cc5c[nH]cn5)nn4)cc3n2)cc1Cl` [Compound 6-62, 7-(1-((1H-imidazol-4-yl)methyl)-1H-1,2,3-triazol-4-yl)-2-(3-(5-chloro-2,4-difluorophenyl)-1H-pyrazol-4-yl)-1,5-naphthyridine] are 0.0398 to 0.316 nM and 25.1 to 158 nM.
Regarding `Fc1cc(F)c(-c2n[nH]cc2-c2ccc3ncc(-c4cn(Cc5cnc6c(c5)CNCC6)nn4)cc3n2)cc1Cl` [Compound 6-63, 2-[3-(5-chloro-2,4-difluoro-phenyl)-1H-pyrazol-4-yl]-7-[1-(5,6,7,8-tetrahydro-1,6-naphthyridin-3-ylmethyl)triazol-4-yl]-1,5-naphthyridine], the Ki in assay [1] was 0.0398 to 0.316 nM. In addition, the IC50 in assay [2] is 25.1 to 158 nM.
Take `Fc1cc(F)c(-c2n[nH]cc2-c2ccc3ncc(-c4nnc5n4CCN5)cc3n2)cc1Cl` [Compound 6-64, 2-[3-(5-chloro-2,4-difluoro-phenyl)-1H-pyrazol-4-yl]-7-(6,7-dihydro-5H-imidazo[2,1-c][1,2,4]triazol-3-yl)-1,5-naphthyridine]: in assay [1], the Ki was 0.398 to 3.16 nM. Moreover, the IC50 in assay [2] is 200 to 1260 nM.
For the molecule `Fc1cc(F)c(-c2n[nH]cc2-c2ccc3ncc(-c4ncc5n4CCN5)cc3n2)cc1Cl` [Compound 6-65, 2-[3-(5-chloro-2,4-difluoro-phenyl)-1H-pyrazol-4-yl]-7-(2,3-dihydro-1H-imidazo[1,2-c]imidazol-5-yl)-1,5-naphthyridine], the Ki in assay [1] is 3.98 to 31.6 nM. Moreover, the IC50 in assay [2] was 200 to 1260 nM.
On the same counts, the results for `Fc1cc(F)c(-c2n[nH]cc2-c2ccc3ncc(NCC4CCCNC4)cc3n2)cc1Cl` (stereo not shown) [Compound 6-66, 6-[3-(5-chloro-2,4-difluoro-phenyl)-1H-pyrazol-4-yl]-N-(3-piperidylmethyl)-1,5-naphthyridin-3-amine] are 0.398 to 3.16 nM and 200 to 1260 nM.
`CNCCn1cc(-c2cnc3ccc(-c4c[nH]nc4-c4cc(Cl)c(F)cc4F)nc3c2)nn1` [Compound 6-67, 2-[4-[6-[3-(5-chloro-2,4-difluoro-phenyl)-1H-pyrazol-4-yl]-1,5-naphthyridin-3-yl]triazol-1-yl]-N-methyl-ethanamine]: in assay [1], the Ki was no more than 0.0316 nM. In addition, the IC50 in assay [2] was 25.1 to 158 nM.
On to `O=C(O)[C@H]1CN(c2cnc3ccc(-c4c[nH]nc4-c4cc(Cl)c(F)cc4F)nc3c2)CCN1` [Compound 6-68, (2R)-4-[6-[3-(5-chloro-2,4-difluoro-phenyl)-1H-pyrazol-4-yl]-1,5-naphthyridin-3-yl]piperazine-2-carboxylic acid], for which the Ki in assay [1] was 0.398 to 3.16 nM. Besides, the IC50 in assay [2] is 200 to 1260 nM.
On the same counts, the results for `Fc1cc(F)c(-c2n[nH]cc2-c2ccc3ncccc3n2)cc1Cl` [Compound 6-71, 2-[3-(5-chloro-2,4-difluoro-phenyl)-1H-pyrazol-4-yl]-1,5-naphthyridine] are 0.398 to 3.16 nM and 25.1 to 158 nM.
In the same order, the values of `CC(CO)N1CCN(CCNc2cnc3ccc(-c4c[nH]nc4-c4cc(Cl)c(F)cc4F)nc3c2)CC1` (stereo not shown) [Compound 6-72, 2-[4-[2-[[6-[3-(5-chloro-2,4-difluoro-phenyl)-1H-pyrazol-4-yl]-1,5-naphthyridin-3-yl]amino]ethyl]piperazin-1-yl]propan-1-ol] are 0.0398 to 0.316 nM and 25.1 to 158 nM.
As to `C[C@@H]1CN(CCNc2cnc3ccc(-c4c[nH]nc4-c4cc(Cl)c(F)cc4F)nc3c2)C[C@H](C)N1` [Compound 6-74, 6-[3-(5-chloro-2,4-difluoro-phenyl)-1H-pyrazol-4-yl]-N-[2-[rac-(3R,5S)-3,5-dimethylpiperazin-1-yl]ethyl]-1,5-naphthyridin-3-amine], the Ki in assay [1] is 0.0398 to 0.316 nM. Also, the IC50 in assay [2] was 25.1 to 158 nM.
In the same order, the values of `COC(=O)CC1CN(CCNc2cnc3ccc(-c4c[nH]nc4-c4cc(Cl)c(F)cc4F)nc3c2)CCN1` (stereo not shown) [Compound 6-75, methyl 2-[4-[2-[[6-[3-(5-chloro-2,4-difluoro-phenyl)-1H-pyrazol-4-yl]-1,5-naphthyridin-3-yl]amino]ethyl]piperazin-2-yl]acetate] are 0.398 to 3.16 nM and 25.1 to 158 nM.
In the same order, the values of `Fc1cc(F)c(-c2[nH]cnc2-c2ccc3ncc(NCCN4CCNCC4)cc3n2)cc1Cl` [Compound 7-1, 6-(5-(5-chloro-2,4-difluorophenyl)-1H-imidazol-4-yl)-N-(2-(piperazin-1-yl)ethyl)-1,5-naphthyridin-3-amine] are 0.0398 to 0.316 nM and 25.1 to 158 nM.
On the same counts, the results for `CC(C)N1CCN(CCNc2cnc3ccc(-c4nc[nH]c4-c4cc(Cl)c(F)cc4F)nc3c2)CC1` [Compound 7-2, 6-[5-(5-chloro-2,4-difluoro-phenyl)-1H-imidazol-4-yl]-N-[2-(4-isopropylpiperazin-1-yl)ethyl]-1,5-naphthyridin-3-amine] are 0.0398 to 0.316 nM and 25.1 to 158 nM.
Regarding `O=C(O)[C@H]1CN(c2cnc3ccc(-c4nc[nH]c4-c4cc(Cl)c(F)cc4F)nc3c2)CCN1` [Compound 7-3, (R)-4-(6-(5-(5-chloro-2,4-difluorophenyl)-1H-imidazol-4-yl)-1,5-naphthyridin-3-yl)piperazine-2-carboxylic acid], the Ki in assay [1] is 0.398 to 3.16 nM. In addition, in assay [2], the IC50 is 25.1 to 158 nM.
In the same order, the values of `CNCCn1cc(-c2cnc3ccc(-c4nc[nH]c4-c4cc(Cl)c(F)cc4F)nc3c2)cn1` [Compound 7-4, 2-(4-(6-(5-(5-chloro-2,4-difluorophenyl)-1H-imidazol-4-yl)-1,5-naphthyridin-3-yl)-1H-pyrazol-1-yl)-N-methylethan-1-amine] are 0.0398 to 0.316 nM and 25.1 to 158 nM.
In the same order, the values of `NCCn1cc(-c2cnc3ccc(-c4nc[nH]c4-c4cc(Cl)c(F)cc4F)nc3c2)cn1` [Compound 7-5, 2-[4-[6-[5-(5-chloro-2,4-difluoro-phenyl)-1H-imidazol-4-yl]-1,5-naphthyridin-3-yl]pyrazol-1-yl]ethanamine] are 0.0398 to 0.316 nM and 25.1 to 158 nM.
In the same order, the values of `CN(CC1CNC1)c1cnc2ccc(-c3nc[nH]c3-c3cc(Cl)c(F)cc3F)nc2c1` [Compound 7-6, N-(azetidin-3-ylmethyl)-6-[5-(5-chloro-2,4-difluoro-phenyl)-1H-imidazol-4-yl]-N-methyl-1,5-naphthyridin-3-amine] are 0.0398 to 0.316 nM and 25.1 to 158 nM.
In the case of `N[C@@H]1CCCC[C@H]1n1cc(-c2cnc3ccc(-c4nc[nH]c4-c4cc(Cl)c(F)cc4F)cc3c2)cn1` [Compound 7-7, (1R,2R)-2-[4-[6-[5-(5-chloro-2,4-difluoro-phenyl)-1H-imidazol-4-yl]-3-quinolyl]pyrazol-1-yl]cyclohexanamine], the Ki in assay [1] was 0.0398 to 0.316 nM. In addition, the IC50 in assay [2] was 25.1 to 158 nM.
Turning to `CC(C)N1CCN(CCNc2cnc3ccc(-c4c[nH]nc4-c4ccc(F)c(F)c4)nc3c2)CC1` [Compound 8-1, 6-(3-(3,4-difluorophenyl)-1H-pyrazol-4-yl)-N-(2-(4-isopropylpiperazin-1-yl)ethyl)-1,5-naphthyridin-3-amine], the Ki in assay [1] is 3.98 to 31.6 nM. In addition, the IC50 in assay [2] was 25.1 to 158 nM.
